Results on one compound are retold here after patent US8604280B2, “Glyphosate tolerant perennial ryegrass named ‘replay’” (J.R. Simplot Company, priority 2009, dated 2013).

The subject of the assay is perennial ryegrass 96-3047. Kind of assay: Glyphosate applied at termination of the Maryland turf trial, plot survival. Particulars: glyphosate at 2-quarts per acre; plot 96-3047, Maryland trial, 1999; only plot in the trial not killed. The format is in vivo, Lolium perenne L. The text has this:
‘Replay’ was developed from a greenhouse cross made in 1992 of perennial ryegrass ‘APM’ (registered, Reg. No. CV-185, PI 565096) pollinated by perennial ryegrass ‘Birdie II’ (registered, Reg. No. 133, PI 537452) in Post Falls, Id. Progeny of this cross was planted in a 1992 spaced-plant nursery in Post Falls, Id., and designated as 92-0226. An open-pollinated selection from this population, designated as 93-0736, was harvested and planted in company turf trials in Post Falls, Id., and Poolesville, Md., in 1993. In 1995, plugs of 93-0736 were pulled from the Maryland plot based on the desirable characteristics of dark green color and turf performance, and then planted in a spaced-plant nursery in Post Falls, Id. In 1996, the perennial ryegrass 96-3047 was selected from this population and planted in company turf trials in both Post Falls, Id., and Poolesville, Md.
In 1999, during the termination of the Maryland trial, 96-3047 was the only plot in the trial that was not killed when glyphosate at the rate of 2-quarts per acre was applied. Survival in the plot was estimated at 30% and plugs were pulled, coded as 99-0089, and 200 plants of 99-0089 were planted in an isolation block in the 1999 Post Falls, Id. nursery.

Turning to `O=C(O)CNCP(=O)(O)O` [glyphosate, N-(phosphonomethyl) glycine], the “Survival in the plot” value is recorded as ~30%.
